According to patent US8063071B2 (GlaxoSmithKline, LLC, priority 2007, dated 2011):
Where a name gives a salt, the structure may show the parent alone.

Experiments:
[1] = molecular target: T1, Recombinant human IKKβ (residues 1-737) (Homo sapiens, UniProt O14920); test: IKK2 assay (TR-FRET); assay type: biochemical; conditions: ATP 1 μM final, read-out: pIC50 against IKK2 (converted)
T1 construct: Recombinant human IKKβ (residues 1-737); GST (C); made in house
T1 sequence (O14920 1-737): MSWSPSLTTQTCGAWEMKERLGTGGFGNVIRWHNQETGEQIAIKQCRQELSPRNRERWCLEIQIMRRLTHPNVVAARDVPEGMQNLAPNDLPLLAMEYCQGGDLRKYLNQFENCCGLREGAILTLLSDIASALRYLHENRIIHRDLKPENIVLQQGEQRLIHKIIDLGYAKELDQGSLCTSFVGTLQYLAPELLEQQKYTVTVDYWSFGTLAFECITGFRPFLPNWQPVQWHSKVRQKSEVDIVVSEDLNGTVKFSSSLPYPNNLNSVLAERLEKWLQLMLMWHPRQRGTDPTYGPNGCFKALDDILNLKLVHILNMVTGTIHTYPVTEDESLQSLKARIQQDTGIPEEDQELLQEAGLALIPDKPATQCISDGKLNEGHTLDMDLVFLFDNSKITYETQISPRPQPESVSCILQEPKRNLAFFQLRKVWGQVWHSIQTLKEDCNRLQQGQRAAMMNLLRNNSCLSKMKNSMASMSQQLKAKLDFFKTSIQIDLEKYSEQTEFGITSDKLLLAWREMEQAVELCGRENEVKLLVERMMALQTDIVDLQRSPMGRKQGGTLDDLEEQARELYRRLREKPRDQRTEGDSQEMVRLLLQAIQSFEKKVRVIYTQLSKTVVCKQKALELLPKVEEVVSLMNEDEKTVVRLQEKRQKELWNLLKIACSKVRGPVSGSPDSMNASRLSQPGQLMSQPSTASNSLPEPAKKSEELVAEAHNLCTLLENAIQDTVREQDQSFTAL
How it was run: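 Baculovirus-expressed C-terminal GST-tagged IKKβ (0.5-5 nM final) in HEPES pH 7.4, MgCl2, CHAPS, DTT, BSA with 1.7% DMSO; 25 nM GST-IB substrate and 1 μM ATP, 15 min at room temperature. EDTA stop; phospho-Ser32/36 detected by Eu-antibody/APC-anti-GST TR-FRET, 665/620 nm ratio.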

[2] = system: human monocyte stimulated cytokine production (TNF-α); test: Monocyte assay (LPS-stimulated TNF-α production); assay type: cell-based; conditions: 24 h, 200 ng/mL LPS, TNF-α by ELISA
How it was run: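 Human CD14+ monocytes were purified from blood and plated at 1×10^6 cells/mL in RPMI 1640 with 10% FBS. Compound was added 30 min before stimulation with 200 ng/mL LPS (0.1% DMSO final), followed by 24 hrs at 37 C. Supernatant TNF-α was measured by ELISA, and viability by trypan blue exclusion.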

SMILES | IC50 [1] | IC50 [2]
COCCN(C)Cc1cc(-c2cc(C(N)=O)c3[nH]cc(C4CCN(S(=O)(=O)C(C)C)CC4)c3c2)cs1 [Example 102, 3-{1-[(1-methylethyl)sulfonyl]-4-piperidinyl}-5-[5-({methyl[2-(methyloxy)ethyl]amino}methyl)-3-thienyl]-1H-indole-7-carboxamide] | ≤ 10 µM | ≤ 1.5 µM
CCS(=O)(=O)N1CCC(c2c[nH]c3c(C(N)=O)cc(-c4ccc(CNC)s4)cc23)CC1 [Example 103, 3-[1-(ethylsulfonyl)-4-piperidinyl]-5-{5-[(methylamino)methyl]-2-thienyl}-1H-indole-7-carboxamide] | ≤ 10 µM | ≤ 1.5 µM
CCS(=O)(=O)N1CCC(c2c[nH]c3c(C(N)=O)cc(-c4csc(CN5CCCC5C)c4)cc23)CC1 (stereo not shown) [Example 104, 3-[1-(ethylsulfonyl)-4-piperidinyl]-5-{5-[(2-methyl-1-pyrrolidinyl)methyl]-3-thienyl}-1H-indole-7-carboxamide trifluoroacetate] | ≤ 10 µM | ≤ 1.5 µM
CCS(=O)(=O)N1CCC(c2c[nH]c3c(C(N)=O)cc(-c4csc(CNCC(C)C)c4)cc23)CC1 [Example 105, 3-[1-(ethylsulfonyl)-4-piperidinyl]-5-(5-{[(2-methylpropyl)amino]methyl}-3-thienyl)-1H-indole-7-carboxamide trifluoroacetate] | ≤ 10 µM | ≤ 1.5 µM
CCCNCc1cc(-c2cc(C(N)=O)c3[nH]cc(C4CCN(S(=O)(=O)CC)CC4)c3c2)cs1 [Example 106, 3-[1-(ethylsulfonyl)-4-piperidinyl]-5-{5-[(propylamino)methyl]-3-thienyl}-1H-indole-7-carboxamide trifluoroacetate] | ≤ 10 µM | ≤ 1.5 µM
CCN(CC)Cc1cc(-c2cc(C(N)=O)c3[nH]cc(C4CCN(S(=O)(=O)CC)CC4)c3c2)cs1 [Example 107, 5-{5-[(diethylamino)methyl]-3-thienyl}-3-[1-(ethylsulfonyl)-4-piperidinyl]-1H-indole-7-carboxamide trifluoroacetate] | ≤ 10 µM | ≤ 1.5 µM
CCS(=O)(=O)N1CCC(c2c[nH]c3c(C(N)=O)cc(-c4csc(CN5[C@H](C)CC[C@H]5C)c4)cc23)CC1 [Example 108, 5-(5-{[(2R,5R)-2,5-dimethyl-1-pyrrolidinyl]methyl}-3-thienyl)-3-[1-(ethylsulfonyl)-4-piperidinyl]-1H-indole-7-carboxamide trifluoroacetate] | ≤ 10 µM | ≤ 1.5 µM
CCS(=O)(=O)N1CCC(c2c[nH]c3c(C(N)=O)cc(-c4csc(CNC5CC5)c4)cc23)CC1 [Example 109, 5-{5-[(cyclopropylamino)methyl]-3-thienyl}-3-[1-(ethylsulfonyl)-4-piperidinyl]-1H-indole-7-carboxamide trifluoroacetate] | ≤ 10 µM | ≤ 1.5 µM
CCS(=O)(=O)N1CCC(c2c[nH]c3c(C(N)=O)cc(-c4csc(CNC5CCC5)c4)cc23)CC1 [Example 110, 5-{5-[(cyclobutylamino)methyl]-3-thienyl}-3-[1-(ethylsulfonyl)-4-piperidinyl]-1H-indole-7-carboxamide trifluoroacetate] | ≤ 10 µM | ≤ 1.5 µM
CCS(=O)(=O)N1CCC(c2c[nH]c3c(C(N)=O)cc(-c4csc(CN(C)C)c4)cc23)CC1 [Example 111, 5-{5-[(dimethylamino)methyl]-3-thienyl}-3-[1-(ethylsulfonyl)-4-piperidinyl]-1H-indole-7-carboxamide trifluoroacetate] | ≤ 10 µM | ≤ 1.5 µM
CCS(=O)(=O)N1CCC(c2c[nH]c3c(C(N)=O)cc(-c4csc(CNCC5CCCC5)c4)cc23)CC1 [Example 112, 5-(5-{[(cyclopentylmethyl)amino]methyl}-3-thienyl)-3-[1-(ethylsulfonyl)-4-piperidinyl]-1H-indole-7-carboxamide trifluoroacetate] | ≤ 10 µM | ≤ 1.5 µM
CCS(=O)(=O)N1CCC(c2c[nH]c3c(C(N)=O)cc(-c4csc(CN[C@H](C)C(C)C)c4)cc23)CC1 [Example 113, 5-[5-({[(1R)-1,2-dimethylpropyl]amino}methyl)-3-thienyl]-3-[1-(ethylsulfonyl)-4-piperidinyl]-1H-indole-7-carboxamide trifluoroacetate] | ≤ 10 µM | ≤ 1.5 µM
CCS(=O)(=O)N1CCC(c2c[nH]c3c(C(N)=O)cc(-c4csc(CNC5CCCC5)c4)cc23)CC1 [Example 114, 5-{5-[(cyclopentylamino)methyl]-3-thienyl}-3-[1-(ethylsulfonyl)-4-piperidinyl]-1H-indole-7-carboxamide trifluoroacetate] | ≤ 10 µM | ≤ 1.5 µM
CCS(=O)(=O)N1CCC(c2c[nH]c3c(C(N)=O)cc(-c4csc(CNCC5CC5)c4)cc23)CC1 [Example 115, 5-(5-{[(cyclopropylmethyl)amino]methyl}-3-thienyl)-3-[1-(ethylsulfonyl)-4-piperidinyl]-1H-indole-7-carboxamide trifluoroacetate] | ≤ 10 µM | ≤ 1.5 µM
CCS(=O)(=O)N1CCC(c2c[nH]c3c(C(N)=O)cc(-c4csc(CN[C@@H](C)C(C)C)c4)cc23)CC1 [Example 116, 5-[5-({[(1S)-1,2-dimethylpropyl]amino}methyl)-3-thienyl]-3-[1-(ethylsulfonyl)-4-piperidinyl]-1H-indole-7-carboxamide trifluoroacetate] | ≤ 10 µM | ≤ 1.5 µM
CCS(=O)(=O)N1CCC(c2c[nH]c3c(C(N)=O)cc(-c4csc(CNCc5ccccc5)c4)cc23)CC1 [Example 118, 3-[1-(ethylsulfonyl)-4-piperidinyl]-5-(5-{[(phenylmethyl)amino]methyl}-3-thienyl)-1H-indole-7-carboxamide trifluoroacetate] | ≤ 10 µM | > 1 µM

Other lines, results leading:

IC50 [1] | IC50 [2] | SMILES
≤ 10 µM | ≤ 1.5 µM | CCS(=O)(=O)N1CCC(c2c[nH]c3c(C(N)=O)cc(-c4csc(CNC[C@@H]5CCCO5)c4)cc23)CC1 [Example 119, 3-[1-(ethylsulfonyl)-4-piperidinyl]-5-[5-({[(2S)-tetrahydro-2-furanylmethyl]amino}methyl)-3-thienyl]-1H-indole-7-carboxamide trifluoroacetate]
≤ 10 µM | ≤ 1.5 µM | CCS(=O)(=O)N1CCC(c2c[nH]c3c(C(N)=O)cc(-c4csc(CNCC5CCOCC5)c4)cc23)CC1 [Example 120, 3-[1-(ethylsulfonyl)-4-piperidinyl]-5-(5-{[(tetrahydro-2H-pyran-4-ylmethyl)amino]methyl}-3-thienyl)-1H-indole-7-carboxamide trifluoroacetate]
≤ 10 µM | ≤ 1.5 µM | CCCCNCc1cc(-c2cc(C(N)=O)c3[nH]cc(C4CCN(S(=O)(=O)CC)CC4)c3c2)cs1 [Example 121, 5-{5-[(butylamino)methyl]-3-thienyl}-3-[1-(ethylsulfonyl)-4-piperidinyl]-1H-indole-7-carboxamide trifluoroacetate]
≤ 10 µM | ≤ 1.5 µM | CCS(=O)(=O)N1CCC(c2c[nH]c3c(C(N)=O)cc(-c4csc(CN5CCC[C@@H]5COC)c4)cc23)CC1 [Example 124, 3-[1-(ethylsulfonyl)-4-piperidinyl]-5-[5-({(2R)-2-[(methyloxy)methyl]-1-pyrrolidinyl}methyl)-3-thienyl]-1H-indole-7-carboxamide trifluoroacetate]
≤ 10 µM | ≤ 1.5 µM | CCS(=O)(=O)N1CCC(c2c[nH]c3c(C(N)=O)cc(-c4ccc(CCNC)cc4)cc23)CC1 [Example 125, 3-[1-(ethylsulfonyl)-4-piperidinyl]-5-{4-[2-(methylamino)ethyl]phenyl}-1H-indole-7-carboxamide]
≤ 10 µM | ≤ 1.5 µM | CCCNCCc1ccc(-c2cc(C(N)=O)c3[nH]cc(C4CCN(S(=O)(=O)CC)CC4)c3c2)cc1 [Example 126, 3-[1-(ethylsulfonyl)-4-piperidinyl]-5-{4-[2-(propylamino)ethyl]phenyl}-1H-indole-7-carboxamide]
≤ 10 µM | ≤ 1.5 µM | CCNCCc1ccc(-c2cc(C(N)=O)c3[nH]cc(C4CCN(S(=O)(=O)CC)CC4)c3c2)cc1 [Example 127, 5-{4-[2-(ethylamino)ethyl]phenyl}-3-[1-(ethylsulfonyl)-4-piperidinyl]-1H-indole-7-carboxamide]
